According to paper PMC10797614, “MYC-Targeting Inhibitors Generated from a Stereodiversified Bicyclic Peptide Library” (Journal of the American Chemical Society, 2024):
*1 amine or outer side, *2 acyl side, *3 side chain or, on linkers, in order; H or OH if unused. Where a SMILES comes first, the peptide text is derived from it. Bridges are numbered along the chain shown (N, C = ends). X1 = O=C([C@@H]1C[C@H](C=CCO[*:3])C[C@@H]1C=CCO[*:1])[*:2]

Target: T1, MYC (Homo sapiens, UniProt P01106)
T1 construct: made in house; host or cells: E. coli BL21(DE3)
T1 sequence (P01106 16-454): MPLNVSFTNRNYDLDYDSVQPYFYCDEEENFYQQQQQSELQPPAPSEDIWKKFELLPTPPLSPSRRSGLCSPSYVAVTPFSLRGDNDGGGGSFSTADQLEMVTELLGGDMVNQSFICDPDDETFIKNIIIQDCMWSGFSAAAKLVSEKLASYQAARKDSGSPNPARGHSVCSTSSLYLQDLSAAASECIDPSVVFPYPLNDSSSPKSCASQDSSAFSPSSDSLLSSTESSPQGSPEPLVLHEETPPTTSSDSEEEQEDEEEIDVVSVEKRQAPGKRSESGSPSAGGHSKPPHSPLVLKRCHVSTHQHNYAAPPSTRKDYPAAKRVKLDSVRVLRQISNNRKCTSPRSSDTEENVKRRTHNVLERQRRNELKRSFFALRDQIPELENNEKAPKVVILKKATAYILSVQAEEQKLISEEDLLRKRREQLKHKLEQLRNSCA
Assay: Temperature-dependent circular dichroism spectroscopy
Format: binding
Settings: NT-B2R 100 μM, MYC 0.1 mg/mL, 0.1 M phosphate buffer pH 7.4, 30 °C to 60 °C
Description: To further study the nature of the interaction between NT-B2R and MYC, we leveraged temperature-dependent circular dichroism (CD) spectroscopy. Here, if no conformation change was involved, the CD spectra of the MYC/NT-B2R mixture would be the addition of each component’s spectra (Figure 3J, calculated). However, we observed drastically different CD spectra (Figure 3J, measured and difference).
Protein thermal shift assay with GlomeltTM
Follow the Biotium’s protocol PI-3302133022. The reactions were set up in qPCR tubes, for each tube 1 μg recombinant MYC protein (1 μg/μL, 1 μL), GlomeltTM dye (10x, 2 μL), peptide ligand (2x, 10 uL, final concentration 500 μM), PBS (1x, 7 uL) to make a total volume of 20 μL with triplicate. For control group, PBS (1x, 17 μL) was used without peptide ligand. […] The resulting curve was fitted with a Boltzmann curve within the range of 45-60 °C and Tm was calculated from the fitted curve. […]
NT-B2R peptide and MYC protein were diluted to the final working concentrations of 100 μM and 0.1 mg/mL respectively. […] Spectra in the 180-280 nm range were recorded in a 1 mm path length cell.
The collected CD spectra were processed in OriginProTM. […] Spectra addition and subtraction were performed before the matrix conversion to generate the calculated and difference […]

## CC(C)C[C@@H]1NC(=O)[C@H](CCCNC(=N)N)NC(=O)[C@@H]2CCCCNC(=O)[C@@H]3C[C@H](C=CCOC(=O)CC[C@@H](C(N)=O)NC1=O)C[C@@H]3C=CCOC(=O)CC[C@H](N)C(=O)N[C@@H](Cc1c[nH]c3ccccc13)C(=O)N1CCC[C@H]1C(=O)N[C@@H](Cc1c[nH]cn1)C(=O)N[C@@H](CCCNC(=N)N)C(=O)N2 [NT-B2R] (H-EWPHRKRLE-NH2; linker 1-6-9 via X1; N-terminus and C-terminus assumed)
  CD spectra of MYC/peptide mixture versus calculated sum (in words): significant changes in the conformation landscape
